The text below walks through data of US10045983B2, “Heteroaryl pyridone and aza-pyrodine compounds” (Genentech, Inc., priority 2011, dated 2018).

This test is described as follows: CD69 Whole Blood Assay (CD69 Hu Blood FACS). The settings on record: Lymphocyte; human whole blood, anti-IgM activated B lymphocytes, FACS; IC70; Table 1; read-out: CD69 Hu Blood FACS IC70. The format is cell-based, human. The procedure, abridged: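 Compounds tested for blocking B-cell CD69 induction by flow cytometry in human whole blood, with activation via anti-human IgM goat F(ab′)2 crosslinking of surface IgM.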
As to `C[C@@H]1CN(c2ccc(Nc3cc(-c4ccnc(-n5ncc6c7c(sc6c5=O)CCCC7)c4CO)cn(C)c3=O)nc2)[C@@H](C)CN1C1COC1` [Example 159, 3-{5-[5-((2S, 5R)-2,5-Dimethyl-4-oxetan-3-yl-piperazin-1-yl)-pyridin-2-ylamino]-3′-hydroxymethyl-1-methyl-6-oxo-1,6-dihydro-[3,4′]bipyridinyl-2′-yl}-6,7,8,9-tetrahydro-3H-benzo[4,5]thieno[2,3-d]pyridazin-4-one], the 70% effect concentration (IC70) (usually the concentration needed for an effect of 70%) is 0.082 µM. Next, `C[C@@H]1CN(c2ccc(Nc3cc(-c4ccnc(-n5ccn6c7c(cc6c5=O)CCCC7)c4CO)cn(C)c3=O)nc2)[C@@H](C)CN1C1COC1` [Example 160, 2-{5-[5-((2S, 5R)-2,5-Dimethyl-4-oxetan-3-yl-piperazin-1-yl)-pyridin-2-ylamino]-3′-hydroxymethyl-1-methyl-6-oxo-1,6-dihydro-[3,4′]bipyridinyl-2′-yl}-6,7,8,9-tetrahydro-2H-pyrazino[1,2-a]indol-1-one]: 0.0547 µM; `CC[C@H]1CN(C2COC2)CCN1c1ccc(Nc2cc(-c3ccnc(N4CCc5c(cc6n5CCCC6)C4=O)c3CO)cn(C)c2=O)nc1` [Example 161, 2-{5-[5-((S)-2-Ethyl-4-oxetan-3-yl-piperazin-1-yl)-pyridin-2-ylamino]-3′-hydroxymethyl-1-methyl-6-oxo-1,6-dihydro-[3,4′]bipyridinyl-2′-yl}-2,3,5,6,7,8-hexahydro-4H-2,4b-diaza-fluoren-1-one]: 0.064 µM. As for `Cn1cc(-c2ccnc(N3CCn4c(cc5c4CCCC5)C3=O)c2CO)cc(Nc2cnccn2)c1=O` [Example 162, 2-[3′-Hydroxymethyl-1-methyl-6-oxo-5-(pyrazin-2-ylamino)-1,6-dihydro-[3,4′]bipyridinyl-2′-yl]-3,4,6,7,8,9-hexahydro-2H-pyrazino[1,2-a]indol-1-one], the IC70 is 0.434 µM. With `Cn1cc(-c2ccnc(N3CCn4c(cc5c4CC(C)(C)C5)C3=O)c2CO)cc(Nc2cc3n(n2)CCN(C2COC2)C3)c1=O` [Example 163, 2-[3′-Hydroxymethyl-1-methyl-5-(5-oxetan-3-yl-4,5,6,7-tetrahydro-pyrazolo[1,5-a]pyrazin-2-ylamino)-6-oxo-1,6-dihydro-[3,4′]bipyridinyl-2′-yl]-7,7-dimethyl-3,4,7,8-tetrahydro-2H,6H-cyclopenta[4,5]pyrrolo[1,2-a]pyrazin-1-one] the figure was 0.0228 µM. Take `CC[C@H]1CN(C2COC2)CCN1c1ccc(Nc2cc(-c3ccnc(N4CCn5c(cc6c5CC(C)(C)C6)C4=O)c3CO)cn(C)c2=O)nc1` [Example 164, 2-{5-[5-((S)-2-Ethyl-4-oxetan-3-yl-piperazin-1-yl)-pyridin-2-ylamino]-3′-hydroxymethyl-1-methyl-6-oxo-1,6-dihydro-[3,4′]bipyridinyl-2′-yl}-7,7-dimethyl-3,4,7,8-tetrahydro-2H,6H-cyclopenta[4,5]pyrrolo[1,2-a]pyrazin-1-one]: the IC70 is 0.029 µM. Next, `CC[C@H]1CN(C2COC2)CCN1c1ccc(Nc2cc(-c3ccnc(-n4ccn5c6c(cc5c4=O)CCCC6)c3CO)cn(C)c2=O)nc1` [Example 165, 2-{5-[5-((S)-2-Ethyl-4-oxetan-3-yl-piperazin-1-yl)-pyridin-2-ylamino]-3′-hydroxymethyl-1-methyl-6-oxo-1,6-dihydro-[3,4′]bipyridinyl-2′-yl}-6,7,8,9-tetrahydro-2H-pyrazino[1,2-a]indol-1-one]: 0.0417 µM. Consider `Cn1cc(-c2ccnc(N3CCn4c5c(c(F)c4C3=O)CCCC5)c2CO)cc(Nc2cc3n(n2)CCN(C2COC2)C3)c1=O` [Example 166, 10-Fluoro-2-[3′-hydroxymethyl-1-methyl-5-(5-oxetan-3-yl-4,5,6,7-tetrahydro-pyrazolo[1,5-a]pyrazin-2-ylamino)-6-oxo-1,6-dihydro-[3,4′]bipyridinyl-2′-yl]-3,4,6,7,8,9-hexahydro-2H-pyrazino[1,2-a]indol-1-one], for which the IC70 stood at 0.155 µM.

Take `Cn1cc(-c2ccnc(N3CCn4c(cc5c4CC(C)(C)C5)C3=O)c2CO)cc(Nc2cc3n(n2)CCOC3)c1=O` [Example 168, 2-[5-(6,7-Dihydro-4H-pyrazolo[5,1-c][1,4]oxazin-2-ylamino)-3′-hydroxymethyl-1-methyl-6-oxo-1,6-dihydro-[3,4′]bipyridinyl-2′-yl]-7,7-dimethyl-3,4,7,8-tetrahydro-2H,6H-cyclopenta[4,5]pyrrolo[1,2-a]pyrazin-1-one]: the IC70 came to 0.0635 µM. As to `Cn1cc(-c2ccnc(N3CCc4c(sc5c4CCCC5)C3=O)c2CO)cc(Nc2ccc(N3CCN(C4COC4)CC3)cn2)c1=O` [Example 169, 2-{3′-Hydroxymethyl-1-methyl-5-[5-(4-oxetan-3-yl-piperazin-1-yl)-pyridin-2-ylamino]-6-oxo-1,6-dihydro-[3,4′]bipyridinyl-2′-yl}-3,4,5,6,7,8-hexahydro-2H-benzo[4,5]thieno[2,3-c]pyridin-1-one], the IC70 is 0.206 µM. With `C[C@H]1CN(C2COC2)CCN1c1ccc(Nc2cc(-c3ccnc(N4CCn5c(cc6c5[C@H]5CC[C@@H]6C5)C4=O)c3CO)cn(C)c2=O)nc1` [Example 171, (S)-2-(3-(hydroxymethyl)-4-(1-methyl-5-(5-(2-methyl-4-(oxetan-3-yl)piperazin-1-yl)pyridin-2-ylamino)-6-oxo-1,6-dihydropyridin-3-yl)pyridin-2-yl)-3,4,6,7,8,9-hexahydro-6,9-methanopyrazino[1,2-a]indol-1(2H)-one] the figure was 0.036 µM; with `Cn1cc(-c2ccnc(N3CCn4c(cc5c4CCCC5)C3=O)c2CO)cc(Nc2nccnn2)c1=O` [Example 172, 2-(4-(5-(1,2,4-triazin-3-ylamino)-1-methyl-6-oxo-1,6-dihydropyridin-3-yl)-3-(hydroxymethyl)pyridin-2-yl)-3,4,6,7,8,9-hexahydropyrazino[1,2-a]indol-1(2H)-one], 5 µM. With `Cc1cc(Nc2cc(-c3ccnc(N4CCn5c(cc6c5CC(C)(C)C6)C4=O)c3CO)cn(C)c2=O)nc(C)n1` [Example 173, 2-[5-(2,6-Dimethyl-pyrimidin-4-ylamino)-3′-hydroxymethyl-1-methyl-6-oxo-1,6-dihydro-[3,4′]bipyridinyl-2′-yl]-7,7-dimethyl-3,4,7,8-tetrahydro-2H,6H-cyclopenta[4,5]pyrrolo[1,2-a]pyrazin-1-one] the figure was 1 µM.

Regarding `C[C@H]1CN(C2COC2)CCN1c1ccc(Nc2cc(-c3ccnc(N4CCn5c(cc6c5[C@@H]5CC[C@H]6C5)C4=O)c3CO)cn(C)c2=O)nc1` [Example 174, (1R,11S)-6-[3-(Hydroxymethyl)-4-[1-methyl-5-({5-[(2S)-2-methyl-4-(oxetan-3-yl)piperazin-1-yl]pyridin-2-yl}amino)-6-oxo-1,6-dihydropyridin-3-yl]pyridin-2-yl]-3,6-diazatetracyclo[9.2.1.0^2,10.0^3,8]tetradeca-2(10),8-dien-7-one], the IC70 turned out to be 0.101 µM.

Take `CC[C@H]1CN(C2COC2)CCN1c1ccc(Nc2cc(-c3ccnc(-n4ncc5c6c(sc5c4=O)CCCC6)c3CO)cn(C)c2=O)nc1` [Example 175, 3-{5-[5-((S)-2-Ethyl-4-oxetan-3-yl-piperazin-1-yl)-pyridin-2-ylamino]-3′-hydroxymethyl-1-methyl-6-oxo-1,6-dihydro-[3,4′]bipyridinyl-2′-yl}-6,7,8,9-tetrahydro-3H-benzo[4,5]thieno[2,3-d]pyridazin-4-one]: the IC70 was 0.0466 µM. For the compound `C[C@H]1CN(C2COC2)CCN1c1ccc(Nc2cc(-c3ccnc(-n4ccn5c6c(cc5c4=O)CCCC6)c3CO)cn(C)c2=O)nc1` [Example 176, (S)-2-(3-(hydroxymethyl)-4-(1-methyl-5-(5-(2-methyl-4-(oxetan-3-yl)piperazin-1-yl)pyridin-2-ylamino)-6-oxo-1,6-dihydropyridin-3-yl)pyridin-2-yl)-6,7,8,9-tetrahydropyrazino[1,2-a]indol-1(2H)-one], the IC70 was found to be 0.0375 µM. For the compound `CCN1CCn2nc(Nc3cc(-c4ccnc(N5CCn6c(cc7c6CCCC7)C5=O)c4CO)cn(C)c3=O)cc2C1` [Example 177, 2-(4-(5-(5-ethyl-4,5,6,7-tetrahydropyrazolo[1,5-a]pyrazin-2-ylamino)-1-methyl-6-oxo-1,6-dihydropyridin-3-yl)-3-(hydroxymethyl)pyridin-2-yl)-3,4,6,7,8,9-hexahydropyrazino[1,2-a]indol-1(2H)-one], the IC70 stood at 0.107 µM. With `Cn1cc(-c2ccnc(-n3ncc4c5c(sc4c3=O)CCCC5)c2CO)cc(Nc2ccccn2)c1=O` [Example 178, 3-[3′-Hydroxymethyl-1-methyl-6-oxo-5-(pyridin-2-ylamino)-1,6-dihydro-[3,4′]bipyridinyl-2′-yl]-6,7,8,9-tetrahydro-3H-benzo[4,5]thieno[2,3-d]pyridazin-4-one] the figure was 1.1 µM. Turning to `Cc1nccc(Nc2cc(-c3ccnc(N4CCn5c(cc6c5CC(C)(C)C6)C4=O)c3CO)cn(C)c2=O)n1` [Example 179, 2-[3′-Hydroxymethyl-1-methyl-5-(2-methyl-pyrimidin-4-ylamino)-6-oxo-1,6-dihydro-[3,4′]bipyridinyl-2′-yl]-7,7-dimethyl-3,4,7,8-tetrahydro-2H,6H-cyclopenta[4,5]pyrrolo[1,2-a]pyrazin-1-one], the IC70 is 0.209 µM. With `Cc1cc(Nc2cc(-c3ccnc(N4CCn5c(cc6c5CC(C)(C)C6)C4=O)c3CO)cn(C)c2=O)ncn1` [Example 180, 2-[3′-Hydroxymethyl-1-methyl-5-(6-methyl-pyrimidin-4-ylamino)-6-oxo-1,6-dihydro-[3,4′]bipyridinyl-2′-yl]-7,7-dimethyl-3,4,7,8-tetrahydro-2H,6H-cyclopenta[4,5]pyrrolo[1,2-a]pyrazin-1-one] the figure was 0.245 µM; with `CN1CCn2nc(Nc3cc(-c4ccnc(-n5ncc6c7c(sc6c5=O)CCCC7)c4CO)cn(C)c3=O)cc2C1` [Example 181, 3-[3′-Hydroxymethyl-1-methyl-5-(5-methyl-4,5,6,7-tetrahydro-pyrazolo[1,5-a]pyrazin-2-ylamino)-6-oxo-1,6-dihydro-[3,4′]bipyridinyl-2′-yl]-6,7,8,9-tetrahydro-3H-benzo[4,5]thieno[2,3-d]pyridazin-4-one], 0.144 µM.
